Source: patent US20120172339A1, “ANGIOGENIC RESORCINOL DERIVATIVES” (Northeastern University, priority 2009, published 2012)
Read-outs that look alike come from different tables or passages of the source.

What was measured:
[1] = molecular target: CB2 cannabinoid receptor (Homo sapiens, UniProt P34972); assay: CB2 receptor binding affinity
Description: (§1) Some disclosed compounds were tested for CB1 and CB2 receptors binding affinity (Table 5). As used herein “binding affinity” is represented by the Ki value. The Ki value is the affinity constant and describes the affinity of the compound for the receptor. […] A detailed description of the methods used to test “binding affinity” of compounds is given in Makriyannis, et al., US 2007, 0135388 and in Papahatjis, et al. J. Med. Chem. (2007) 4048, the content of each of which is hereby incorporated by reference.

[2] = molecular target: CB1 cannabinoid receptor (Homo sapiens, UniProt P21554); assay: CB1 receptor binding affinity
CB1 cannabinoid receptor, sequence (P21554 whole entry): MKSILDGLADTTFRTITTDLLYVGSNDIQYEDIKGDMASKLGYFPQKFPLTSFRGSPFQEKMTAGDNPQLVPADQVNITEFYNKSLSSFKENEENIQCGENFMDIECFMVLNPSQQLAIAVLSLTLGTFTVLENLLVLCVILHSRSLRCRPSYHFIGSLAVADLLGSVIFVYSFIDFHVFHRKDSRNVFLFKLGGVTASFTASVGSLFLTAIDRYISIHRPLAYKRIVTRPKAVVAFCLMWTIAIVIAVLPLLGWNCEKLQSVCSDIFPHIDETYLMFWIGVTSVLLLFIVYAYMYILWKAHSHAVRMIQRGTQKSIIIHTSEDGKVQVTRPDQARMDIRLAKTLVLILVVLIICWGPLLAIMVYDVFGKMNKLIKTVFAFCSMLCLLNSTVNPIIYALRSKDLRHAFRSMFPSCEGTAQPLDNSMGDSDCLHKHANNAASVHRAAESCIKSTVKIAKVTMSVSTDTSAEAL
Description: as §1

[3] = system: CB1-KO-HUVEC cells; assay: MMP (matrix metalloproteinase) activity in CB1-KO-HUVEC; assay type: cell-based, human; details: FIGS. 7 and 8, read-out: EC50 for induction of MMP activity
Description: For aspects disclosed herein, promotion of angiogenic responses under in vitro and ex vivo conditions as well as increasing in MMP (matrix metalloproteinase) activity, correlates well with the ability of anandamide and its synthetic analog (R)-methanandamide to bind to and modulate the putative “non CB1/non CB2 anandamide receptor”. Thus, the compounds described herein where tested using in vitro angiogenesis assays (cord formation by endothelial cells in extracellular matrix mimicking matrigel), ex vivo angiogenesis assay (sprouting or blood capillary formation under ex vivo conditions) as well as for MMP activity in CB1 receptor knock out human umbilical vein endothelial cells (HUVEC) (CB1-KO-HUVEC).
Some disclosed compounds were tested using in vitro angiogenesis assays (cord formation by endothelial cells in extracellular matrix mimicking matrigel, Table 4), ex vivo angiogenesis assay (sprouting or blood capillary formation under ex vivo conditions, Table 4) as well as for MMP (matrix metalloproteinase) activity in CB1 receptor knock out human umbilical vein endothelial cells (HUVEC) (CB1-KO-HUVEC, Figures A and B). Stimulation of angiogenic responses under in vitro and ex vivo conditions as well as increasing in MMP activity, correlates well with the ability of the compound to bind to and modulate the putative “non CB1/non CB2 anandamide receptor”. […] A detailed description of the angiogenesis and MMP activity assays is given in Mukhopadhyay (US 2007, 0244200, and Balas, et al., J. Med. Chem. (2009) ASAP the content of each of which is hereby incorporated by reference.

CB2 cannabinoid receptor, sequence (P34972 whole entry): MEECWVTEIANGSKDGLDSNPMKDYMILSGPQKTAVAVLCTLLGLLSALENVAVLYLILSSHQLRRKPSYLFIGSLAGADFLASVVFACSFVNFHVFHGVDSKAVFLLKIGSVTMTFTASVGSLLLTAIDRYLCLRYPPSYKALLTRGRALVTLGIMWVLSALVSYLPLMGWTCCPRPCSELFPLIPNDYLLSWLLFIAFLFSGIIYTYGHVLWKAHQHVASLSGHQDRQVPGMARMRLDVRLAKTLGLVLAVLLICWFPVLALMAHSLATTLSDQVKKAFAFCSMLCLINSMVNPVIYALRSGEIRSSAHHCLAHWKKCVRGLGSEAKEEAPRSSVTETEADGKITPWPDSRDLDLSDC

## C=C(C)[C@@H]1CCC(C)=C[C@H]1c1c(O)cc(O)cc1CC#N
other
  melting point: 131 to 133 °C

## C=C(C)[C@@H]1CCC(C)=C[C@H]1c1c(O)cc(C)cc1O (relative stereo) [Compound 3.1, (−)-2-[3-3,4-trans-p-Menthadien-(1,8)-yl]-5-methylresorcinol]
[1]; read-out: CB2 Receptor Ki
  Ki: 47.7 µM
[2]; read-out: CB1 Receptor Ki
  Ki: 16.7 µM

## C=C(C)[C@@H]1CCC(C)=C[C@H]1c1c(O)cc(CCCCCCC)cc1O (relative stereo) [Compound 3.3, (−)-2-[3-3,4-trans-p-Menthadien-(1,8)-yl]-5-heptylresorcinol]
[1]
  Ki: 1.42 µM
[2]
  Ki: 0.651 µM

## [2H]C([2H])([2H])CCc1cc(O)c([C@@H]2C=C(C)CC[C@H]2C(=C)C)c(O)c1 (relative stereo) [Compound 3.5, (−)-2-[3-3,4-trans-p-Menthadien-(1,8)-yl]-5-[3′-(^2H3)-propyl]resorcinol]
[1]; read-out: CB2 Receptor Ki
  Ki: 2.58 µM
[2]; read-out: CB1 Receptor Ki
  Ki: 8.39 µM

## C=C(C)[C@@H]1CCC(C)=C[C@H]1c1c(O)cc(O)cc1O (relative stereo) [Compound 3.7, (−)-2-[3-3,4-trans-p-Menthadien-(1,8)-yl]-5-hydroxyresorcinol]
[1]; read-out: CB2 Receptor Ki
  Ki: 41.7 µM
[2]; read-out: CB1 Receptor Ki
  Ki: 21.5 µM

## C=C(C)[C@@H]1CCC(C)=C[C@H]1c1c(O)cc(F)cc1O (relative stereo) [Compound 3.8, (−)-2-[3-3,4-trans-p-Menthadien-(1,8)-yl]-5-flouororesorcinol]
[3]; Homo sapiens
  EC50: 0.05 to 0.07 µM
[1]; read-out: CB2 Receptor Ki
  Ki: 43.4 µM
[2]; read-out: CB1 Receptor Ki
  Ki: 14.6 µM

## C=C(C)[C@@H]1CCC(C)=C[C@H]1c1c(O)cc(I)cc1O (relative stereo) [Compound 3.11, (−)-2-[3-3,4-trans-p-Menthadien-(1,8)-yl]-5-iodoresorcinol]
[1]; read-out: CB2 Receptor Ki
  Ki: 2.19 µM
[2]; read-out: CB1 Receptor Ki
  Ki: 5.13 µM
other
  melting point: 128 to 130 °C

## C=C(C)[C@@H]1CCC(C)=C[C@H]1c1c(O)cc(CBr)cc1O (relative stereo) [Compound 3.12, (−)-2-[3-3,4-trans-p-Menthadien-(1,8)-yl]-5-(bromomethyl)resorcinol]
[1]; read-out: CB2 Receptor Ki
  Ki: 10.8 µM
[2]; read-out: CB1 Receptor Ki
  Ki: 2.2 µM

## C=C(C)[C@@H]1CCC(C)=C[C@H]1c1c(O)cc(CC#N)cc1O (relative stereo) [Compound 3.13, (−)-2-[3-3,4-trans-p-Menthadien-(1,8)-yl]-5-(cyanomethyl)resorcinol]
[1]; read-out: CB2 Receptor Ki
  Ki: 4.2 µM
[2]; read-out: CB1 Receptor Ki
  Ki: 1.44 µM

## C=C(C)[C@@H]1CCC(C)=C[C@H]1c1c(O)cc(CC(=O)OC)cc1O (relative stereo) [Compound 3.14, (−)-2-[3-3,4-trans-p-Menthadien-(1,8)-yl]-5-(2-methoxy-2-oxoethyl)resorcinol]
[1]; read-out: CB2 Receptor Ki
  Ki: 0.62 µM
[2]; read-out: CB1 Receptor Ki
  Ki: 2.37 µM

## C=C(C)[C@@H]1CCC(C)=C[C@H]1c1c(O)cc(CN=[N+]=[N-])cc1O (relative stereo) [Compound 3.15, (−)-2-[3-3,4-trans-p-Menthadien-(1,8)-yl]-5-(azidomethyl)resorcinol]
[3]; Homo sapiens
  EC50: 0.05 to 0.07 µM
[1]; read-out: CB2 Receptor Ki
  Ki: 2.03 µM
[2]; read-out: CB1 Receptor Ki
  Ki: 3.56 µM

## C=C(C)[C@@H]1CCC(C)=C[C@H]1c1c(O)cc(CCCCBr)cc1O (relative stereo) [Compound 3.16, (−)-2-[3-3,4-trans-p-Menthadien-(1,8)-yl]-5-(4-bromobutyl)resorcinol]
[1]
  Ki: 0.059 µM
[2]
  Ki: 0.192 µM

## C=C(C)[C@@H]1CCC(C)=C[C@H]1c1c(C)cc(O)cc1O (relative stereo) [Compound 4.1, (−)-4-[3-3,4-trans-p-Menthadien-(1,8)-yl]-5-methylresorcinol]
[1]; read-out: CB2 Receptor Ki
  Ki: 31.1 µM
[2]; read-out: CB1 Receptor Ki
  Ki: 10 µM

## C=C(C)[C@@H]1CCC(C)=C[C@H]1c1c(O)cc(O)cc1CCCCC (relative stereo) [Compound 4.2, (−)-4-[3-3,4-trans-p-Menthadien-(1,8)-yl]-5-pentylresorcinol, reference compound]
[1]
  Ki: 9.64 µM
[2]
  Ki: 4.78 µM

## C=C(C)[C@@H]1CCC(C)=C[C@H]1c1c(O)cc(O)cc1CCCCCCC (relative stereo) [Compound 4.3, (−)-4-[3-3,4-trans-p-Menthadien-(1,8)-yl]-5-heptylresorcinol]
[1]
  Ki: 0.398 µM
[2]
  Ki: 0.25 µM

## [2H]C([2H])([2H])CCc1cc(O)cc(O)c1[C@@H]1C=C(C)CC[C@H]1C(=C)C (relative stereo) [Compound 4.5, (−)-4-[3-3,4-trans-p-Menthadien-(1,8)-yl]-5-[3′-(^2H3)-propyl]resorcinol]
[1]; read-out: CB2 Receptor Ki
  Ki: 19 µM
[2]; read-out: CB1 Receptor Ki
  Ki: > 20 µM

## C=C(C)[C@@H]1CCC(C)=C[C@H]1c1c(O)cc(O)cc1F (relative stereo) [Compound 4.8, (−)-4-[3-3,4-trans-p-Menthadien-(1,8)-yl]-5-flouororesorcinol]
[1]; read-out: CB2 Receptor Ki
  Ki: 7.21 µM
[2]; read-out: CB1 Receptor Ki
  Ki: 4.15 µM
other
  melting point: 105 to 106 °C

## C=C(C)[C@@H]1CCC(C)=C[C@H]1c1c(O)cc(O)cc1Cl (relative stereo) [Compound 4.9, (−)-4-[3-3,4-trans-p-Menthadien-(1,8)-yl]-5-chlororesorcinol]
[1]; read-out: CB2 Receptor Ki
  Ki: 4.97 µM
[2]; read-out: CB1 Receptor Ki
  Ki: 3.18 µM
other
  melting point: 101 to 103 °C

## C=C(C)[C@@H]1CCC(C)=C[C@H]1c1c(O)cc(O)cc1Br (relative stereo) [Compound 4.10, (−)-4-[3-3,4-trans-p-Menthadien-(1,8)-yl]-5-bromoresorcinol]
[1]; read-out: CB2 Receptor Ki
  Ki: 13.3 µM
[2]; read-out: CB1 Receptor Ki
  Ki: 7.46 µM

## C=C(C)[C@@H]1CCC(C)=C[C@H]1c1c(O)cc(O)cc1I (relative stereo) [Compound 4.11, (−)-4-[3-3,4-trans-p-Menthadien-(1,8)-yl]-5-iodoresorcinol]
[3]; Homo sapiens
  EC50: 0.05 to 0.07 µM
[1]; read-out: CB2 Receptor Ki
  Ki: 10.5 µM
[2]; read-out: CB1 Receptor Ki
  Ki: 13.1 µM

## C=C(C)[C@@H]1CCC(C)=C[C@H]1c1c(O)cc(O)cc1CCCCBr (relative stereo) [Compound 4.16]
[1]; read-out: CB2 Receptor Ki
  Ki: 5.73 µM
[2]; read-out: CB1 Receptor Ki
  Ki: 12.5 µM

## C=C(C)[C@@H]1CCC(C)=C[C@H]1c1c(O)cc(CCCCCCC)c([C@@H]2C=C(C)CC[C@H]2C(=C)C)c1O (relative stereo) [Compound 5.3, 2,4-bis-[3-3,4-trans-p-Menthadien-(1,8)-yl]-5-heptylresorcinol]
[3]; Homo sapiens
  EC50: 0.05 to 0.07 µM
[1]; read-out: CB2 Receptor Ki
  Ki: > 10 µM
[2]; read-out: CB1 Receptor Ki
  Ki: > 10 µM

## CCCCC/C=C\C/C=C\C/C=C\C/C=C\CCCC(=O)N[C@H](C)CO [(R)-methanandamide, reference compound]
[3]
  EC50: ~0.042 µM

## C=C(C)[C@@H]1CCC(C)=C[C@H]1c1c(O)cc(/C=C\CCCCC)cc1O [Compound 3.6, (−)-2-[3-3,4-trans-p-Menthadien-(1,8)-yl]-5-(1,2-cis-hepten-1-yl)resorcinol]
[3]; Homo sapiens
  EC50: 0.05 to 0.07 µM

## CCCCCc1cc(O)c([C@H]2C=C(C)[C@H]3C[C@@H]2C3(C)C)c(O)c1 [Compound 8.2, (+)-2-[(1R, 4S, 5S)-2,6,6-trimethylbicyclo[3.1.1]hept-2-en-4-yl]-5-pentyl-resorcinol]
[3]; Homo sapiens
  EC50: 0.05 to 0.07 µM

## CCCCCc1cc(O)cc(O)c1[C@H]1C=C(C)[C@H]2C[C@@H]1C2(C)C [Compound 9.2, (+)-4-[(1R, 4S, 5S)-2,6,6-trimethylbicyclo[3.1.1]hept-2-en-4-yl]-5-pentyl-resorcinol]
[1]; read-out: CB2 Receptor Ki
  Ki: 4.94 µM
[2]; read-out: CB1 Receptor Ki
  Ki: 9.25 µM

## CCCCCc1cc(O)c([C@@H]2C=C(C)[C@@H]3C[C@H]2C3(C)C)c(O)c1 [Compound 11.2, (−)-2-[(1S, 4R, 5R)-2,6,6-trimethylbicyclo[3.1.1]hept-2-en-4-yl]-5-pentyl-resorcinol]
[1]; read-out: CB2 Receptor Ki
  Ki: 0.565 µM
[2]; read-out: CB1 Receptor Ki
  Ki: 0.837 µM

## CCCCCc1cc(O)cc(O)c1[C@@H]1C=C(C)[C@@H]2C[C@H]1C2(C)C [Compound 12.2]
[1]; read-out: CB2 Receptor Ki
  Ki: 19 µM
[2]; read-out: CB1 Receptor Ki
  Ki: 10.1 µM
